Test results taken from US9700516B2, “Compositions and methods for reducing overdose” (priority 2014, dated 2017).

Experiment: Effect of alkalinizing agents on the pH of a solution of 0.1 N HCl with a starting pH of 2.0
Assay type: physicochemical
Method: Various alkalinizing agents were added to a solution of 0.1 N HCl with a starting pH of 2.0 and the pH of the solution was tested at different time points.

O=C([O-])[O-].[Na+].[Na+] [sodium carbonate]
pH (11.13 mg/200 ml, 0 min): 2.66 | pH (11.13 mg/200 ml, 1 min): 2.80 | pH (11.13 mg/200 ml, 2 min): 2.80 | pH (11.13 mg/200 ml, 3 min): 2.80 | pH (11.13 mg/200 ml, 4 min): 2.80 | pH (11.13 mg/200 ml, 5 min): 2.80 | pH (11.13 mg/200 ml, 10 min): 2.80 | pH (11.13 mg/200 ml, 15 min): 2.80 | pH (11.13 mg/200 ml, 20 min): 2.80 | pH (11.13 mg/200 ml, 60 min): 2.80 | pH (30.11 mg/200 ml, 0 min): 2.57 | pH (30.11 mg/200 ml, 1 min): 3.21 | pH (30.11 mg/200 ml, 2 min): 3.24 | pH (30.11 mg/200 ml, 3 min): 3.25 | pH (30.11 mg/200 ml, 4 min): 3.25 | pH (30.11 mg/200 ml, 5 min): 3.26 | pH (30.11 mg/200 ml, 10 min): 3.27 | pH (30.11 mg/200 ml, 15 min): 3.27 | pH (30.11 mg/200 ml, 20 min): 3.27 | pH (30.11 mg/200 ml, 60 min): 3.27 | effect on pH of the solution (81.68 mg in 200 ml): raise the pH of the 200 ml solution to above neutral | pH (81.68 mg/200 ml, 0 min): 2.73 | pH (81.68 mg/200 ml, 1 min): 9.02 | pH (81.68 mg/200 ml, 2 min): 9 | pH (81.68 mg/200 ml, 3 min): 8.97 | pH (81.68 mg/200 ml, 4 min): 8.95 | pH (81.68 mg/200 ml, 5 min): 8.93 | pH (81.68 mg/200 ml, 10 min): 8.83 | pH (81.68 mg/200 ml, 15 min): 8.81 | pH (81.68 mg/200 ml, 20 min): 8.5 | pH (81.68 mg/200 ml, 60 min): 8.25 | pH of the solution (all tested amounts, over the times tested): > 2.0

CCCCCCCCCCCCOS(=O)(=O)[O-].[Na+] [sodium lauryl sulfate]
pH (10 mg (10.22 mg actual) in 200 ml, 0 min): 2.67 | pH (10 mg (10.22 mg actual) in 200 ml, 1 min): 2.68 | pH (10 mg (10.22 mg actual) in 200 ml, 2 min): 2.68 | pH (10 mg (10.22 mg actual) in 200 ml, 3 min): 2.68 | pH (10 mg (10.22 mg actual) in 200 ml, 4 min): 2.67 | pH (10 mg (10.22 mg actual) in 200 ml, 5 min): 2.67 | pH (10 mg (10.22 mg actual) in 200 ml, 6 min): 2.67 | pH (10 mg (10.22 mg actual) in 200 ml, 7 min): 2.67 | pH (10 mg (10.22 mg actual) in 200 ml, 8 min): 2.67 | pH (10 mg (10.22 mg actual) in 200 ml, 9 min): 2.67 | pH (10 mg (10.22 mg actual) in 200 ml, 10 min): 2.67 | pH (10 mg (10.22 mg actual) in 200 ml, 20 min): 2.67 | pH (10 mg (10.22 mg actual) in 200 ml, 30 min): 2.67 | effect on pH of the solution (10 mg in 200 ml, 30 minute timecourse): insufficient to substantially raise the pH of the solution
